SMILES strings stand for the structures. In brackets after ≈: the same amount, converted by molar mass. Where a name gives a salt, the structure may show the parent alone. Bounds are passed on as bounds.

These results are taken from patent EP0086590A1, “Antibacterial agents, their preparation and use” (priority 1982, dated 1983).

The test system of data set [1] is Escherichia coli 0111. Description: Antibacterial activity (mic). The data set is classed as cell-based.
The subject of data set [2] is Pseudomonas aeruginosa 11. Description: Antibacterial activity (mic). It counts as cell-based.
The subject of data set [3] is Escherichia coli ESS. Kind of data set: Antibacterial activity (mic). The data set is classed as cell-based.
Data set [4] relates to Escherichia coli JT39 R+. Kind of data set: Antibacterial activity (mic). The data set is classed as cell-based.
Data set [5] relates to Escherichia coli E8. Kind of data set: Antibacterial activity (mic). It counts as cell-based.
For data set [6], the system named is Pseudomonas aeruginosa Dalgleish. Description: Antibacterial activity (mic). The data set is classed as cell-based.
The test system of data set [7] is Serratia marcescens US20. Kind of data set: Antibacterial activity (mic). It counts as cell-based.
The test system of data set [8] is Pseudomonas aeruginosa A. Description: Antibacterial activity (mic). The data set is classed as cell-based.
Data set [9] can be described thus: Effect of serum on antibacterial activity. The data set is classed as cell-based.
In data set [10] the test system is Proteus mirabilis 977. Description: Antibacterial activity (mic). It counts as cell-based.
The test system of data set [11] is Staphylococcus aureus Oxford. Kind of data set: Antibacterial activity (mic). The data set is classed as cell-based.
Data set [12] has as its system Streptococcus faecalis I. Description: Antibacterial activity (mic). The note with it: Enterococcus faecalis. The data set is classed as cell-based.
The test system of data set [13] is Proteus mirabilis 13. Kind of data set: Antibacterial activity (mic). It counts as cell-based.
For data set [14], the system named is Bacillus subtilis A. Description: Antibacterial activity (mic). It counts as cell-based.
The subject of data set [15] is Staphylococcus aureus Russell. Description: Antibacterial activity (mic). It counts as cell-based.
The test system of data set [16] is Proteus morganii 1580. Description: Antibacterial activity (mic). The conditions noted are these: Morganella morganii. The data set is classed as cell-based.
The test system of data set [17] is Klebsiella aerogenes A. Description: Antibacterial activity (mic). The data set is classed as cell-based.
Data set [18] relates to Escherichia coli E96 R+. Kind of data set: Antibacterial activity (mic). The data set is classed as cell-based.
In data set [19] the test system is Proteus rettgeri WM16. Kind of data set: Antibacterial activity (mic). The conditions noted are these: Providencia rettgeri. It counts as cell-based.
For data set [20], the system named is Enterobacter cloacae N1. Description: Antibacterial activity (mic). The data set is classed as cell-based.
Data set [21] in a line: Mouse urinary recovery of antibacterial agent. The data set is classed as in vivo. The note with it: urine, sc, 10 mg/kg s/c, parent antibacterial agent administered alone. Here is the method:
By way of comparison. the parent antibacterial agent of the compound of Example 2 (ie sodium salt of [-2-acetamido- ethenylthio]-6-(I-hydroxysulphonyloxyethyl)-7-oxo-l-azabicyclo[3.2.0]hept-2-ene-2-carboxylic acid) was administered together with the corresponding dipeptidase inhibitor (ie 2-isovaleramidobut-2-ene) in a 1:1 relationship. […] However, since the compound of Example 2 liberates an approximate ratio of 2:1 by weight of antibacterial agent to inhibitor, the compound of Example 2 makes much more efficient use of the dipeptidase inhibitor.

Data set [22] relates to Serratia marcescens NEU3974. Kind of data set: Antibacterial activity (mic). It counts as cell-based.

For orientation: MIC means the smallest concentration in the dilution series that meets the test's criterion for growth inhibition. Low readings indicate a more susceptible organism, high ones a less susceptible organism. Turning to `C/C=C(\NC(=O)CC(C)C)C(=O)OCOC(=O)C1=C(S/C=C/NC(C)=O)C[C@@H]2[C@H]([C@H](C)O)C(=O)N12` [Example 1, 2-Isovaleramidobut-2Z-enoyloxymethyl (5R,6R)-3-[(E)-2-acetamidoethenylthio]-6-[(S)-1-hydroxyethyl]-7-oxo-1-azabicyclo[3.2.0]hept-2-ene-2-carboxylate], the MIC worked out at 0.8 µg/mL (≈ 1.57 µM) in data set [1]; 100 µg/mL (≈ 196 µM) in data set [2]; 0.2 µg/mL (≈ 0.392 µM) in data set [3]; 25 µg/mL (≈ 49.1 µM) in [4]; 0.8 µg/mL (≈ 1.57 µM) in data set [5]; 100 µg/mL (≈ 196 µM) in [6]. Also, the MIC is 6.2 µg/mL (≈ 12.2 µM) in data set [7]; over 100 µg/mL in data set [8]; 3.1 µg/mL (≈ 6.08 µM) in data set [10]; 0.4 µg/mL (≈ 0.785 µM) in [11]; 3.1 µg/mL (≈ 6.08 µM) in [12]; 0.8 µg/mL (≈ 1.57 µM) in [13]. Further, the MIC in data set [14] turned out to be 0.4 µg/mL (≈ 0.785 µM); in data set [15], 0.8 µg/mL (≈ 1.57 µM); in [16], 25 µg/mL (≈ 49.1 µM); in [17], 6.2 µg/mL (≈ 12.2 µM); in data set [18] it was 100 µg/mL (≈ 196 µM); in data set [19], 6.2 µg/mL (≈ 12.2 µM). Further, the MIC in data set [20] came to 6.2 µg/mL (≈ 12.2 µM). Moreover, the “Effect of serum on activity” value in data set [9] is on record as 2-8 fold.

For the molecule `CC(=O)NC=CSC1=C(C(=O)O)N2C(=O)C(C(C)O)C2C1` [(A), Sodium (5R,6R)-3-[(E)-2-acetamidoethenylthio]-6-[(S)-1-hydroxyethyl]-7-axo-1-azabicyclo[3.2.0]hept-2-ene-2-carboxylate], in [21], the dose excreted came to 0.3%.

Consider `CC(=O)NC=CSC1=C(C(=O)O)N2C(=O)C(C(C)OS(=O)(=O)O)C2C1` (stereo not drawn) [(B), sodium salt of [-2-acetamido-ethenylthio]-6-(I-hydroxysulphonyloxyethyl)-7-oxo-l-azabicyclo[3.2.0]hept-2-ene-2-carboxylic acid], for which the dose excreted in data set [21] was found to be 1.5%.

Turning to `CC=C(NC(=O)CC(C)C)C(=O)OCOC(=O)C1=C(SC=CNC(C)=O)CC2C(C(C)OS(=O)(=O)O)C(=O)N12` [Example 2, Sodium salt of 2-Isovaleramidobut-2Z-en-oyloxymethyl (5R,6R)-3-[(E)-2-acetamidoethenylthio]-6-[(S)-l-hydroxysulphonyloxyethyl]-7-oxo-l-azabicyclo[3.2.0]hept 2-ene-2-carboxylate], the MIC was 3.1 µg/mL in [1]; 100 µg/mL in [2]; 1.6 µg/mL in data set [3]; 1.6 µg/mL in data set [4]; 6.2 µg/mL in [5]; 100 µg/mL in data set [6]. The MIC in data set [7] was 6.2 µg/mL; in data set [8], 100 µg/mL; in data set [10] it was 3.1 µg/mL; in data set [11], 1.6 µg/mL; in data set [12] it was 50 µg/mL; in [14] it was 1.6 µg/mL. The MIC came out at 3.1 µg/mL in data set [15]; 0.4 µg/mL in [17]; 12.5 µg/mL in [18]; 0.8 µg/mL in data set [19]; 3.1 µg/mL in data set [20]. For the same molecule, the “Effect of serum on activity” value in data set [9] is 2-4 fold.

For `C/C=C(\NC(=O)CC(C)C)C(=O)OCOC(=O)C1=C(Sc2ncccn2)C[C@@H]2[C@@H]([C@@H](C)O)C(=O)N12` (racemic) [Example 3, 2-Isovaleramidobut-2Z-enoyloxymethyl 5(R,S),6(S,R)-3-(pyrimidin-2-ylthio)-6-[l(R,S)-hydroxyethyl]-7-oxo-1-azabicyclo[3.2.0]hept-2-ene-2-carboxylate], the MIC is 6.2 µg/mL (≈ 12.3 µM) in data set [1]; 1.6 µg/mL (≈ 3.17 µM) in data set [3]; 3.1 µg/mL (≈ 6.14 µM) in data set [4]; over 100 µg/mL in [6]; over 100 µg/mL in data set [8]; 12.5 µg/mL (≈ 24.8 µM) in [10]. Moreover, the minimal inhibitory concentration (MIC) in data set [11] is 0.8 µg/mL (≈ 1.59 µM); in [12], 50 µg/mL (≈ 99.1 µM); in [14], 0.8 µg/mL (≈ 1.59 µM); in [15], 0.8 µg/mL (≈ 1.59 µM); in [16] it was 25 µg/mL (≈ 49.5 µM); in [17], 3.1 µg/mL (≈ 6.14 µM). The MIC in [22] is 100 µg/mL (≈ 198 µM); in [19], 25 µg/mL (≈ 49.5 µM); in data set [20], 25 µg/mL (≈ 49.5 µM). Besides, in data set [9], the “Effect of serum on activity” value is on record as 10-20 fold.
